Data as given in the supplement of paper PMC10307832.

Assays:
Assay in all cases: relative viability (nuclei count vs DMSO), 5 days (fraction); higher = more cells survive
[1] = compound: CN(C)C/C=C/C(=O)Nc1cc2c(Nc3ccc(F)c(Cl)c3)ncnc2cc1O[C@H]1CCOC1 [Afatinib] + CS(=O)(=O)N1CCN(Cc2cc3nc(-c4cccc5[nH]ncc45)nc(N4CCOCC4)c3s2)CC1 [Pictilisib] (partner 1 µM)
Summary of the method: (§1)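 Lung cancer cell lines were seeded in 1536-well plates and dosed by pin tool the next day, with either a single drug or a fixed anchor-drug dose combined with five library-drug doses (not always all listed) spaced in √10 steps. Five days later, one step fixed the cells and stained their nuclei (final 0.05% Triton X-100, 1% formaldehyde, 1 ug/ml Hoechst), and nuclei were counted on 4× images. Relative viability is the nuclei count in treated wells divided by the count in vehicle wells, and each value is the median of duplicate plates.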

[2] = compound: CN(C)C/C=C/C(=O)Nc1cc2c(Nc3ccc(F)c(Cl)c3)ncnc2cc1O[C@H]1CCOC1 [Afatinib] + C[C@]1(O)C[C@@H](c2nc(-c3ccc4ccc(-c5ccccc5)nc4c3)c3c(N)nccn32)C1 [Linsitinib] (partner 1 µM)
Summary of the method: as §1

[3] = compound: CN(C)C/C=C/C(=O)Nc1cc2c(Nc3ccc(F)c(Cl)c3)ncnc2cc1O[C@H]1CCOC1 [Afatinib] + Cc1nc(NC(=O)N2CCC[C@H]2C(N)=O)sc1-c1ccnc(C(C)(C)C(F)(F)F)c1 [Alpelisib] (partner 2 µM)
Summary of the method: as §1

[4] = compound: CN(C)C/C=C/C(=O)Nc1cc2c(Nc3ccc(F)c(Cl)c3)ncnc2cc1O[C@H]1CCOC1 [Afatinib] + Nc1ncn([C@H]2C[C@H](O)[C@@H](CO)O2)c(=O)n1 [Decitabine] (partner 2 µM)
Summary of the method: as §1

| Cell Line | relative viability ([1]; first compound 0.005 µM) | relative viability ([1]; first compound 0.01581 µM) | relative viability ([1]; first compound 0.05 µM) | relative viability ([1]; first compound 0.1581 µM) | relative viability ([1]; first compound 0.5 µM) | relative viability ([2]; first compound 0.005 µM) | relative viability ([2]; first compound 0.01581 µM) | relative viability ([2]; first compound 0.05 µM) | relative viability ([2]; first compound 0.1581 µM) | relative viability ([2]; first compound 0.5 µM) | relative viability ([3]; first compound 0.005 µM) | relative viability ([3]; first compound 0.01581 µM) | relative viability ([3]; first compound 0.05 µM) | relative viability ([3]; first compound 0.1581 µM) | relative viability ([3]; first compound 0.5 µM) | relative viability ([4]; first compound 0.005 µM) | relative viability ([4]; first compound 0.01581 µM) | relative viability ([4]; first compound 0.05 µM) | relative viability ([4]; first compound 0.1581 µM) | relative viability ([4]; first compound 0.5 µM) |
| --- | --- | --- | --- | --- | --- | --- | --- | --- | --- | --- | --- | --- | --- | --- | --- | --- | --- | --- | --- | --- |
| NCI-H1993 | 0.93 | 0.937 | 0.983 | 1.03 | 0.868 | 0.714 | 0.736 | 0.803 | 0.822 | 0.696 | 0.608 | 0.771 | 0.721 | 0.765 | 0.705 | 0.552 | 0.51 | 0.546 | 0.509 | 0.578 |
| NCI-H1437 | 0.489 | 0.407 | 0.378 | 0.468 | 0.471 | 1.18 | 1.1 | 0.941 | 0.98 | 0.967 | 0.99 | 1.06 | 1.04 | 0.924 | 1.01 | 0.597 | 0.552 | 0.542 | 0.535 | 0.552 |
| UMC-11 | 0.981 | 0.841 | 0.787 | 0.725 | 0.84 | 0.996 | 0.973 | 1.04 | 0.97 | 1.04 | 1 | 1.03 | 0.953 | 0.963 | 1.13 | 0.664 | 0.602 | 0.584 | 0.554 | 0.63 |
| 201T | 0.682 | 0.658 | 0.662 | 0.659 | 0.698 | 1.06 | 0.986 | 0.909 | 0.86 | 0.897 | 1 | 0.961 | 0.922 | 0.918 | 0.935 | 0.857 | 0.867 | 0.844 | 0.78 | 0.822 |
| NCI-H358 | 0.305 | 0.241 | 0.279 | 0.288 | 0.269 | 0.466 | 0.329 | 0.366 | 0.318 | 0.264 | 0.668 | 0.488 | 0.324 | 0.255 | 0.37 | 0.191 | 0.18 | 0.149 | 0.163 | 0.136 |
| LOU-NH91 | 0.492 | 0.49 | 0.541 | 0.498 | 0.501 | 0.527 | 0.551 | 0.58 | 0.534 | 0.591 | 0.494 | 0.492 | 0.537 | 0.501 | 0.523 | 0.617 | 0.672 | 0.699 | 0.643 | 0.697 |
| HOP-62 | 0.802 | 0.688 | 0.757 | 0.662 | 0.639 | 1.03 | 1.13 | 1.2 | 1.03 | 1.04 | 0.977 | 0.599 | 1.14 | 1.08 | 0.689 | 0.252 | 0.181 | 0.238 | 0.193 | 0.219 |
| NCI-H1915 | 1.05 | 0.993 | 0.951 | 0.912 | 0.855 | 1.13 | 1.08 | 1.11 | 1.07 | 1.07 | 1.09 | 1.09 | 1.06 | 1.02 | 0.972 | 0.269 | 0.268 | 0.272 | 0.268 | 0.269 |
